Data published in patent US12263172B2, “Toll-like receptor agonists for use in the treatment of hepatitis b” (priority 2019, dated 2025).

Tested on: cytokines and ISGs (ISG15, MX1, OAS1)
Assay: Phase 1 multiple dose pharmacodynamics in healthy adults
Assay type: in vivo, human
Details: 1.25 mg qw
Protocol: Serum levels of IFN-α were measured by ELISA. Serum levels of IP-10, IFN-γ, TNF-α, IL-12 (subunit P40), IL-6, IL-1β, IL-1RA, IL-18, MCP-1, MIP-1β, G-CSF, GM-CSF, IL-10, IL-15 were measured by Luminex xMAP technology. The LLOQ for IFN-α was determined at 12.5 pg/mL and at 25 pg/mL for all other cytokines measured. Fold changes for each of the cytokines were calculated compared to predose values or LLOQ-1 values if predose values were below LLOQ.
IFN-stimulated gene (ISG) expression analysis was conducted for 3 genes, ISG15, MX1, and OAS1, using quantitative polymerase chain reaction (qPCR) on collected whole blood samples. For the ISGs, relative fold changes from baseline were calculated according to the delta delta Cycle threshold (Ct) method (2^[Delta Delta Ct]). Assessments were done for Part 1 predose and postdose: 1.5 hours, 6 hours, 12 hours (Day 1), 24 hours (day 2), 48 hours (Day 3), 96 hours (Day 5), follow-up Week 2. For the Part 2, assessments were done predose and post the first and fourth dose: 2 hours, 4 hours, 12 hours, 24 hours, 48 hours, 96 hours and one week follow-up; and post the second and third doses: 12 hours and 48 hours.

[1] = 12 hours after the second administration

CCCCOc1nc(N)c2[nH]cc(Cc3ccc(CN4CCCC4)cc3)c2n1 [Compound 4]
IFN-α or IP-10 levels before the subsequent dose: values returned to baseline before administration of the subsequent dose
PD responses after the last dose compared to the first dose: No enhanced induction of PD responses as well as no evidence for tachyphylaxis
fold increase of IFN-α in the subject with cotton wool spots [1]: 8.4 fold
maximum IFN-α level in the subject with cotton wool spots [1]: 97 pg/mL
